This is an account of results in patent US20120077801A1, “Chemical Compounds 637” (priority 2007, published 2012).

For assay [1], the target named is T1, recombinant Human Phosphodiesterase B2 (PDE4B2) (Homo sapiens, UniProt Q07343). The assay is described as follows: Human Phosphodiesterase B2 Alpha Screen Assay. It counts as biochemical. The note with it: Alpha Screen cAMP assay, 60 minutes incubation at room temperature, read-out: PDE4B2 pIC50 (converted). The procedure:
Human Phosphodiesterase B2 Alpha Screen Assay
The assay uses recombinant Human Phosphodiesterase B2 (PDE4B2) produced in house (PrAZL0133), stored at −20° C. The substrate uses cAMP, part of the Alpha Screen cAMP kit (Perkin Elmer, Cat#6760625M), stored at 4° C. The Alpha Screen kit also includes biotinylated cAMP, acceptor and donor beads.
The assay additions were as follows: Test compounds and controls were added to white 384-well flat-bottom plates (Greiner, Cat#781075), 0.2 μl in 100% DMSO, followed by 10 μl PDE4B2 in reaction buffer. The reaction buffer constitution was: 50 mM Tris (pH 7.5), 8.3 mM MgCl2, 1.7 mM EGTA and 0.01% (w/v) Brij®35. The enzyme and the compounds were incubated at room temperature for 15 minutes. Then 10 μl cAMP in reaction buffer was added. The assay was stopped after 60 minutes incubation at room temperature by adding 10 μl acceptor beads in detection buffer with 40 mM EDTA. The detection buffer constitution was: 5 mM Tris (pH 7.5), 0.1% (w/v) BSA and 0.1% (v/v) Tween 20. This addition followed by an addition of 10 μl donor beads in detection buffer, with biotinylated cAMP. The plates were then incubated, dark at room temperature, for 5 hours followed by measurement on a Fusion™-α analyser. pIC50 values (presented in Table 14) were determined using X1fit curve fitting using model 205.

For assay [2], the target named is T1, recombinant Human Phosphodiesterase B2 (PDE4B2). The assay is described as follows: Human Phosphodiesterase B2 Radiometric Assay. Format: biochemical. As to conditions: for IC50: read-out: PDE4B2 pIC50 (converted). How it is done:
Human Phosphodiesterase B2 Radiometric Assay
The assay uses recombinant Human Phosphodiesterase B2 (PDE4B2) produced in house (PrAZL0163), stored at −20° C. This assay is based on the observation that 5′AMP, the product of the reaction catalysed by PDE4, binds preferentially to yttrium silicate SPA beads (Amersham Biosciences, UK) compared to the substrate, cAMP. Compounds at the appropriate concentration were preincubated at 30 C for 30 min. with an assay buffer containing 50 mM HEPES (pH 7.5), 8.3 mM MgCl2, 1.7 mM EGTA, 0.01% (w/v) Brij®35 and 0.1 μg/mL recombinant PDE4B2. The reaction was started by the addition of [3H]cyclic AMP to give a final concentration of 8 nM, and was stopped 20 minutes after the addition of the substrate by the addition of yttrium silicate SPA beads containing 18 mM Zn SO4. Bound [3H]cyclic AMP was measured using a Topcount NXT (Packard Bioscience, UK). pIC50 values (presented in Table 15) were determined using X1fit3 curve fitting, using model 205.

Setting [3] is: recombinant human PDE4B2, [3H]cyclic AMP 8 nM, SPA radiometric assay.

T1 sequence (Q07343 1-564 isoform Q07343-2): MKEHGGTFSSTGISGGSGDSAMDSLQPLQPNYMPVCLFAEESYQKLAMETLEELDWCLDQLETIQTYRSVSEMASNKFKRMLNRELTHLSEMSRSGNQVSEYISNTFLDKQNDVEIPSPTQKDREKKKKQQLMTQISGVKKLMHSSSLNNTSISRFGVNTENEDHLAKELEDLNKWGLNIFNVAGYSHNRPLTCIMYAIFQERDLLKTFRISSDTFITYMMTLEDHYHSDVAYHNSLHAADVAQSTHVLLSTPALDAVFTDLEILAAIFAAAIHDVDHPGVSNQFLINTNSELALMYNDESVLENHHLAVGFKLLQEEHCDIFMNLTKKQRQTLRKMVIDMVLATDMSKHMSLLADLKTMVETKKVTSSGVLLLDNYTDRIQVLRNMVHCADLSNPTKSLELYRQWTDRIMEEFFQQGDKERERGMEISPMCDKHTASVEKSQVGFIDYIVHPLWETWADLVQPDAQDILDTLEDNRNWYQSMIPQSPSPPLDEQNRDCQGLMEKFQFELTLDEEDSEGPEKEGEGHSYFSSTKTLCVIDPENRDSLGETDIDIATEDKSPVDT

As to `COC(=O)[C@H]1CC[C@H](n2c(=O)n([C@H]3CC[C@@H](NC(=O)C4CC4)CC3)c(=O)c3cc(F)cnc32)CC1` [Example 8, methyl trans-4-[3-{cis-4-[(cyclopropylcarbonyl)amino]cyclohexyl}-6-fluoro-2,4-dioxo-3,4-dihydropyrido[2,3-d]pyrimidin-1(2H)-yl]cyclohexanecarboxylate], the IC50 in assay [1] is 50.1 nM.

On to `CN1CCC(n2c(=O)n([C@H]3CC[C@@H](NC(=O)c4cn5cc(F)ccc5n4)CC3)c(=O)c3cc(F)cnc32)CC1` [Example 40, 6-fluoro-N-{cis-4-[6-fluoro-1-(1-methylpiperidin-4-yl)-2,4-dioxo-1,4-dihydropyrido[2,3-d]pyrimidin-3(2H)-yl]cyclohexyl}imidazo[1,2-a]pyridine-2-carboxamide], for which the “PDE4B2 % at 0.32 uM (printed in the pIC50 column)” value in assay [2] (at 0.32 uM, recombinant human PDE4B2, radiometric assay) was 50% at 0.32 uM.

As to `CN(C)CCCn1c(=O)n([C@H]2CC[C@@H](NC(=O)c3cn4cc(F)ccc4n3)CC2)c(=O)c2cc(F)cnc21` [Example 41, N-{cis-4-[1-[3-(dimethylamino)propyl]-6-fluoro-2,4-dioxo-1,4-dihydropyrido[2,3-d]pyrimidin-3(2H)-yl]cyclohexyl}-6-fluoroimidazo[1,2-a]pyridine-2-carboxamide], the IC50 in assay [2] (setting [3]) was 158 nM.

Take `O=C(NC1CN2CCC1CC2)c1cccc(-n2c(=O)n([C@H]3CC[C@@H](NC(=O)c4cn5cc(F)ccc5n4)CC3)c(=O)c3cc(F)cnc32)c1` (some centres unmarked) [Example 42]: the “PDE4B2 pIC50” value in assay [2] (setting [3]) is 7.7.

Take `O=C(N[C@H]1CC[C@@H](n2c(=O)c3cc(F)cnc3n(-c3cccc(OCCN4CCOCC4)c3)c2=O)CC1)c1cn2cc(F)ccc2n1` [Example 43, 6-fluoro-N-{cis-4-[6-fluoro-1-[3-(2-morpholin-4-ylethoxy)phenyl]-2,4-dioxo-1,4-dihydropyrido[2,3-d]pyrimidin-3 (2H)-yl]cyclohexyl}imidazo[1,2-a]pyridine-2-carboxamide]: in assay [2] (setting [3]), the IC50 is 1 nM.
